Where two headings read alike, the source gives them in different places.
Assays:
Format in all cases: in vivo
Pyricularia oryzae = settings: for Test C disease control rating (100 = 100% disease control, 0 = no disease control): rice seedlings sprayed to run-off, inoculated the following day, rating relative to controls, unmarked compounds (standard test rate); for Test C disease control rating: rice blast
[1] = system: Eiysiphe graminis f. sp. tritici; test: Test A: wheat powdery mildew, preventive spray on wheat seedlings; settings: for Test A disease control rating (100 = 100% disease control, 0 = no disease control): wheat seedlings sprayed to run-off, inoculated the following day, rating relative to controls, unmarked compounds (standard test rate); for Test A disease control rating: wheat powdery mildew
Summary of the method: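 Compounds (3% acetone, 250 ppm Trem 014) sprayed to run-off on wheat seedlings, inoculated next day with spore dust. Incubated 7 days at 20° C before disease rating, 0–100% control relative to untreated controls.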

Puccinia recondita = test: Test B: wheat leaf rust, preventive spray on wheat seedlings; settings: for Test B disease control rating (100 = 100% disease control, 0 = no disease control): wheat seedlings sprayed to run-off, inoculated the following day, rating relative to controls, unmarked compounds (standard test rate); for Test B disease control rating: wheat leaf rust
Summary of the method: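 Wheat seedlings were sprayed to run-off with compound (3% acetone, 250 ppm Trem 014), then inoculated with P. recondita spores the next day. They were held 24 h saturated at 20 °C, then 6 days at 20 °C. Ratings are 0–100% disease control versus controls.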

Phytophthora infestans = settings: for Test D disease control rating (100 = 100% disease control, 0 = no disease control): tomato seedlings sprayed to run-off, inoculated the following day, rating relative to controls, unmarked compounds (standard test rate); for Test D disease control rating: tomato late blight
Botrytis cinerea = test: Test E: gray mold, preventive spray on cucumber seedlings; settings: for Test E disease control rating (100 = 100% disease control, 0 = no disease control): cucumber seedlings sprayed to run-off, inoculated the following day, rating relative to controls, unmarked compounds (standard test rate); for Test E disease control rating: gray mold on cucumber
Summary of the method: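 Compounds in 3% acetone were suspended with 250 ppm Trem 014 surfactant and sprayed to run-off on cucumber seedlings. B. cinerea spores were inoculated next day, then 48 h saturated humidity at 20° C and 5 days at 20° C. Disease control rated 0–100% versus controls.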

[2] = 100 = 100% disease control, 0 = no control, unmarked entries (standard test concentration)
[3] = 100 = 100% disease control, 0 = no control relative to controls, unmarked entries (standard test concentration)

C#Cc1ccccc1OCC(C)NC(=O)C(C#N)C(C)(C)C (mixture of isomers) [compound 216]
Test C disease control rating (100 = 100% disease control, 0 = no disease control) (Pyricularia oryzae): 99%
Test A disease control rating (100 = 100% disease control, 0 = no disease control) [1]: 0%
Test B disease control rating (100 = 100% disease control, 0 = no disease control) (Puccinia recondita): 0%
Test D disease control rating (100 = 100% disease control, 0 = no disease control) (Phytophthora infestans): 9%
Test E disease control rating (100 = 100% disease control, 0 = no disease control) (Botrytis cinerea): 45%

C[C@H](COc1cc(F)cc(F)c1)NC(=O)C(C#N)C(C)(C)C (single isomer, unassigned) [184b]
Test C disease control rating (Pyricularia oryzae; [2]): 74%
Test A disease control rating [1, 3]: 62%
Test B disease control rating (Puccinia recondita; [2]): 0%
Test D disease control rating (Phytophthora infestans; [2]): 9%
Test E disease control rating (Botrytis cinerea; [2]): 45%

Cc1c(Cl)cc(C#N)n1OCC(C)NC(=O)C(C#N)C(C)C(C)(C)C (mixture of isomers) [71b]
Test C disease control rating (Pyricularia oryzae; tested at 100 ppm): 0%
Test A disease control rating ([1]; tested at 100 ppm): 0%
Test B disease control rating (Puccinia recondita; tested at 100 ppm): 0%
Test D disease control rating (Phytophthora infestans; tested at 100 ppm): 19%
Test E disease control rating (Botrytis cinerea; tested at 100 ppm): 0%

C[C@H](COc1cc(F)c(F)cc1F)NC(=O)C(C#N)C(C)(C)C (single isomer, unassigned) [188b]
Test C disease control rating (Pyricularia oryzae; [2]): 100%
Test A disease control rating [1, 3]: 0%
Test B disease control rating (Puccinia recondita; [2]): 0%
Test D disease control rating (Phytophthora infestans; [2]): 35%
Test E disease control rating (Botrytis cinerea; [2]): 45%

CCC1(C(=O)NC(C)COc2cccc(C(F)(F)F)c2C#N)C(C)C1(Cl)Cl (mixture of isomers) [compound 133]
Test C disease control rating (Pyricularia oryzae; [2]): 0%
Test A disease control rating [1, 3]: 0%
Test B disease control rating (Puccinia recondita; [2]): 0%
Test D disease control rating (Phytophthora infestans; [2]): 0%
Test E disease control rating (Botrytis cinerea; [2]): 0%

CC(COc1cccc(F)c1)NC(=O)C(C#N)C(C)(C)C (single isomer, unassigned) [3c]
Test C disease control rating (Pyricularia oryzae; [2]): 100%
Test A disease control rating [1, 3]: 38%
Test B disease control rating (Puccinia recondita; [2]): 0%
Test D disease control rating (Phytophthora infestans; [2]): 4%
Test E disease control rating (Botrytis cinerea; [2]): 0%

CCC(=CCNC(=O)C1(CC)C(C)C1(Cl)Cl)c1cc(Cl)ccc1Cl (centres unmarked) [compound 262]
Test C disease control rating (100 = 100% disease control, 0 = no disease control) (Pyricularia oryzae): 53%
Test A disease control rating (100 = 100% disease control, 0 = no disease control) [1]: 98%
Test B disease control rating (100 = 100% disease control, 0 = no disease control) (Puccinia recondita): 0%
Test D disease control rating (100 = 100% disease control, 0 = no disease control) (Phytophthora infestans): 99%
Test E disease control rating (100 = 100% disease control, 0 = no disease control) (Botrytis cinerea): 0%

CCC1(C(=O)NC(C)COc2cccc(C)c2)C(C)C1(Cl)Cl (mixture of isomers) [compound 96]
Test C disease control rating (Pyricularia oryzae; tested at 40 ppm): 0%
Test A disease control rating ([1]; tested at 40 ppm): 0%
Test B disease control rating (Puccinia recondita; tested at 40 ppm): 0%
Test D disease control rating (Phytophthora infestans; tested at 40 ppm): 90%
Test E disease control rating (Botrytis cinerea; tested at 40 ppm): 0%

C[C@H](COc1ccc(F)c(F)c1)NC(=O)C(C#N)C(C)(C)C (single isomer, unassigned) [30a]
Test C disease control rating (Pyricularia oryzae; [2]): 100%
Test A disease control rating [1, 3]: 0%
Test B disease control rating (Puccinia recondita; [2]): 0%
Test D disease control rating (Phytophthora infestans; [2]): 0%
Test E disease control rating (Botrytis cinerea; [2]): 0%

Cc1cccc(C#N)c1OCC(C)NC(=O)C(C#N)C(C)C(C)(C)C (mixture of isomers) [compound 280]
Test C disease control rating (100 = 100% disease control, 0 = no disease control) (Pyricularia oryzae): 74%
Test A disease control rating (100 = 100% disease control, 0 = no disease control) [1]: 56%
Test B disease control rating (100 = 100% disease control, 0 = no disease control) (Puccinia recondita): 0%
Test D disease control rating (100 = 100% disease control, 0 = no disease control) (Phytophthora infestans): 0%
Test E disease control rating (100 = 100% disease control, 0 = no disease control) (Botrytis cinerea): 0%

CC(COc1ccc(F)cc1C#N)NC(=O)C(C#N)C(C)(C)C (mixture of isomers) [compound 40]
Test C disease control rating (Pyricularia oryzae; [2]): 86%
Test A disease control rating [1, 3]: 21%
Test B disease control rating (Puccinia recondita; [2]): 0%
Test D disease control rating (Phytophthora infestans; [2]): 0%
Test E disease control rating (Botrytis cinerea; [2]): 0%

CC(C)(C)C(C#N)C(=O)NC/C=C/c1ccc(F)cc1F (racemic) [compound 273]
Test C disease control rating (100 = 100% disease control, 0 = no disease control) (Pyricularia oryzae): 53%
Test A disease control rating (100 = 100% disease control, 0 = no disease control) [1]: 86%
Test B disease control rating (100 = 100% disease control, 0 = no disease control) (Puccinia recondita): 0%
Test D disease control rating (100 = 100% disease control, 0 = no disease control) (Phytophthora infestans): 23%
Test E disease control rating (100 = 100% disease control, 0 = no disease control) (Botrytis cinerea): 0%

CC(COc1c(F)cccc1C#N)NC(=O)C(C#N)C(C)(C)C (mixture of isomers) [compound 203]
Test C disease control rating (Pyricularia oryzae; [2]): 91%
Test A disease control rating [1, 3]: 0%
Test B disease control rating (Puccinia recondita; [2]): 28%
Test D disease control rating (Phytophthora infestans; [2]): 0%
Test E disease control rating (Botrytis cinerea; [2]): 0%

C[C@H](COc1cccc(F)c1)NC(=O)C(C#N)C(C)(C)C (single isomer, unassigned) [3e]
Test C disease control rating (Pyricularia oryzae; [2]): 100%
Test A disease control rating [1, 3]: 86%
Test B disease control rating (Puccinia recondita; [2]): 0%
Test D disease control rating (Phytophthora infestans; [2]): 68%
Test E disease control rating (Botrytis cinerea; [2]): 0%

CCC1(C(=O)NCC=Cc2cccc(Cl)c2)C(C)C1(Cl)Cl (centres unmarked) [compound 159]
Test C disease control rating (Pyricularia oryzae; [2]): 0%
Test A disease control rating [1, 3]: 0%
Test B disease control rating (Puccinia recondita; [2]): 0%
Test D disease control rating (Phytophthora infestans; [2]): 0%
Test E disease control rating (Botrytis cinerea; [2]): 47%

C[C@H](COc1cc(Cl)cc(Cl)c1)NC(=O)C(C#N)C(C)(C)C (single isomer, unassigned) [35a]
Test C disease control rating (Pyricularia oryzae; [2]): 74%
Test A disease control rating [1, 3]: 0%
Test B disease control rating (Puccinia recondita; [2]): 0%
Test D disease control rating (Phytophthora infestans; [2]): 80%
Test E disease control rating (Botrytis cinerea; [2]): 0%

CC(COc1cccc(C(F)(F)F)c1C#N)NC(=O)C(C#N)C(C)C(C)(C)C (mixture of isomers) [compound 66]
Test C disease control rating (Pyricularia oryzae; [2]): 0%
Test A disease control rating [1, 3]: 0%
Test B disease control rating (Puccinia recondita; [2]): 0%
Test D disease control rating (Phytophthora infestans; [2]): 69%
Test E disease control rating (Botrytis cinerea; [2]): 0%

CCC1(C(=O)NCC=Cc2cccs2)C(C)C1(Cl)Cl (centres unmarked) [compound 164]
Test C disease control rating (Pyricularia oryzae; [2]): 72%
Test A disease control rating [1, 3]: 0%
Test B disease control rating (Puccinia recondita; [2]): 0%
Test D disease control rating (Phytophthora infestans; [2]): 56%
Test E disease control rating (Botrytis cinerea; [2]): 7%

CC(C(C#N)C(=O)NCC=Cc1cccc(Br)c1)C(C)(C)C (mixture of isomers) [compound 76]
Test C disease control rating (Pyricularia oryzae; tested at 40 ppm): 0%
Test A disease control rating ([1]; tested at 40 ppm): 0%
Test B disease control rating (Puccinia recondita; tested at 40 ppm): 0%
Test D disease control rating (Phytophthora infestans; tested at 40 ppm): 19%
Test E disease control rating (Botrytis cinerea; tested at 40 ppm): 0%

CCC1(C(=O)NC(C)CCn2c(C#N)cc(Br)c2C)C(C)C1(Cl)Cl (mixture of isomers) [compound 143]
Test C disease control rating (Pyricularia oryzae; [2]): 53%
Test A disease control rating [1, 3]: 0%
Test B disease control rating (Puccinia recondita; [2]): 0%
Test D disease control rating (Phytophthora infestans; [2]): 0%
Test E disease control rating (Botrytis cinerea; [2]): 0%

C[C@H](COc1ccc(Br)cc1)NC(=O)C(C#N)C(C)(C)C (single isomer, unassigned) [10d]
Test C disease control rating (Pyricularia oryzae; [2]): 74%
Test A disease control rating [1, 3]: 77%
Test B disease control rating (Puccinia recondita; [2]): 0%
Test D disease control rating (Phytophthora infestans; [2]): 35%
Test E disease control rating (Botrytis cinerea; [2]): 45%

CC(COn1c(C#N)cc(Cl)c1Cl)NC(=O)C(C#N)C(C)(C)C (mixture of isomers) [compound 51]
Test C disease control rating (Pyricularia oryzae; [2]): 53%
Test A disease control rating [1, 3]: 71%
Test B disease control rating (Puccinia recondita; [2]): 0%
Test D disease control rating (Phytophthora infestans; [2]): 68%
Test E disease control rating (Botrytis cinerea; [2]): 0%

— patent publication US6642392B1 (priority 1997, dated 2003)
